Source: patent US7432260B2, “Pyrimidine compounds” (Cyclacel Limted, priority 2002, dated 2008)
Where two headings read alike, the source gives them in different places.

What was measured:
[1] = molecular target: CDK1/cyclin B (Homo sapiens, UniProt P06493); assay: Kinase assay CDK1/cyclin B; type: biochemical
Summary of the method: (§1)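 Recombinant kinase (2-4 μg) with polypeptide substrate in pH 7.4 MOPS/β-glycerophosphate buffer; started with 15 mM MgCl2 + 100 μM ATP plus [γ-32P]-ATP, incubated at 30° C. Stopped on ice, filtered, washed in orthophosphoric acid; incorporated 32P counted by scintillation.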

[2] = molecular target: CDK7/cyclin H (Homo sapiens, UniProt P50613); assay: CDK7 assay; type: biochemical
Summary of the method: (§2)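 Radiometric filter-binding format: test compound at varying amounts incubated with CTD peptide (biotinyl-Ahx-(YSPTSPS)4-NH2) and either CDK9/cyclin T1 or CDK7/cyclin H, using 100 μM ATP spiked with 32P, 45 min, 30 °C, pH 7.2. Reactions were stopped on ice, bound to avidin, filtered on P81 plates and scintillation-counted.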

[3] = molecular target: GSK-3β (Homo sapiens, UniProt P49841); assay: Kinase assay GSK-3β; type: biochemical
Summary of the method: as §1

[4] = molecular target: CDK4/cyclin D1 (Homo sapiens, UniProt P11802); assay: Kinase assay CDK4/cyclin D1; type: biochemical
Summary of the method: as §1

[5] = system: HT29; assay: 72-h MTT cytotoxicity assay HT29; type: cell-based; conditions: Homo sapiens, HT-29, 72 h
Summary of the method: (§3)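 MTT viability, 72 h compound exposure at 37° C; triplicate wells, 1/3 serial dilutions from DMSO stocks; seeding density per doubling time; MTT 4 h in dark; DMSO solubilisation.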

[6] = system: Saos-2; assay: 72-h MTT cytotoxicity assay Saos-2; type: cell-based; conditions: Homo sapiens, SAOS-2, 72 h
Summary of the method: as §3

[7] = molecular target: PLK-1 (Homo sapiens, UniProt P53350); assay: Kinase assay PLK-1; type: biochemical
Protocol: (§4) Kinase assays. […] This was achieved by measurement of incorporation of radioactive phosphate from ATP into appropriate polypeptide substrates. Recombinant protein kinases and kinase complexes were produced or obtained commercially. Assays were performed using 96-well plates and appropriate assay buffers (typically 25 mM β-glycerophosphate, 20 mM MOPS, 5 mM EGTA, 1 mM DTT, 1 mM […], pH 7.4), into which were added 2-4 μg of active enzyme with appropriate substrates. The reactions were initiated by addition of Mg/ATP mix (15 mM MgCl2+100 μM ATP with 30-50 kBq per well of [γ-^32P]-ATP) and mixtures incubated as required at 30° C. Reactions were stopped on ice, followed by filtration through p81 filterplates or GF/C filterplates (Whatman Polyfiltronics, Kent, UK). After washing 3 times with 75 mM aq orthophosphoric acid, plates were dried, scintillant added and incorporated radioactivity measured in a scintillation counter (TopCount, Packard Instruments, Pangbourne, Berks, UK). Compounds for kinase assay were made-up as 10 mM stocks in DMSO and diluted into 10% DMSO inrassay buffer.

[8] = system: A549; assay: 72-h MTT cytotoxicity assay A549; type: cell-based; conditions: Homo sapiens, A549, 72 h
Summary of the method: as §3

[9] = molecular target: CDK9/cyclin T1 (Homo sapiens, UniProt P50750); assay: CDK9 assay; type: biochemical
Summary of the method: as §2

[10] = molecular target: PKCα (protein kinase C α) (Homo sapiens, UniProt P17252); assay: Kinase assay PKCα; type: biochemical; conditions: Table 3 selectivity panel; read-out: Kinase specificity IC50 PKCα
Protocol: as §4

[11] = system: SKUT-1; assay: 72-h MTT cytotoxicity assay SKUT-1; type: cell-based; conditions: Homo sapiens, SK-UT-1, 72 h; Table 5; Leiomyosarcoma
Protocol: (§5) MTT cytotoxicity assay. […] Standard 72-h MTT (thiazolyl blue; 3-[4,5-dimethylthiazol-2-yl]-2,5-diphenyltetrazolium bromide) assays were performed (Haselsberger, K.; Peterson, D. C.; Thomas, D. G.; Darling, J. L. Anti Cancer Drugs 1996, 7, 331-8; Loveland, B. E.; Johns, T. G.; Mackay, I. R.; Vaillant, F.; Wang, Z. X.; Hertzog, P. J. Biochemistry International 1992, 27, 501-10). In short: cells were seeded into 96-well plates according to doubling time and incubated overnight at 37° C. Test compounds were made up in DMSO and a 1/3 dilution series prepared in 100 μL cell media, added to cells (in triplicates) and incubated for 72 ho at 37° C. MTT was made up as a stock of 5 mg/mL in cell media and filter-sterilised. Media was removed from cells followed by a wash with 200 μL PBS.
(§6) MTT solution was then added at 20 μL per well and incubated in the dark at 37° C. for 4 h. MTT solution was removed and cells again washed with 200 μL PBS. MTT dye was solubilised with 200 μL per well of DMSO with agitation.

[12] = system: SK-N-MC; assay: 72-h MTT cytotoxicity assay SK-N-MC; type: cell-based; conditions: Homo sapiens, Table 5, Neuroblastoma
Protocol: as §5, §6

[13] = system: AGS; assay: 72-h MTT cytotoxicity assay AGS; type: cell-based; conditions: Homo sapiens, Table 5, Gastric adenocarcinoma
Protocol: as §5, §6

[14] = system: CCRF-CEM; assay: 72-h MTT cytotoxicity assay CCRF-CEM; type: cell-based; conditions: Homo sapiens, Table 5, Leukemia
Protocol: as §5, §6

[15] = system: MCF-7; assay: 72-h MTT cytotoxicity assay MCF-7; type: cell-based; conditions: Homo sapiens, MCF7, 72 h; Table 5; Breast
Protocol: as §5, §6

[16] = system: WI38; assay: 72-h MTT cytotoxicity assay WI38; type: cell-based; conditions: Homo sapiens, WI-38, 72 h; Table 5; Foetal lung fibroblast (non-transformed)
Protocol: as §5, §6

[17] = system: U2OS; assay: 72-h MTT cytotoxicity assay U2OS; type: cell-based; conditions: Homo sapiens, Table 5, Bone osteosarcoma
Protocol: as §5, §6

[18] = system: Messa-Dx5; assay: 72-h MTT cytotoxicity assay Messa-Dx5; type: cell-based; conditions: Homo sapiens, MES-SA/Dx5, 72 h; Table 5; Uterine
Protocol: as §5, §6

[19] = molecular target: CDK2/cyclin A (Homo sapiens, UniProt P24941); assay: Kinase assay CDK2/cyclin A; type: biochemical
Summary of the method: as §1

[20] = Table 2, read-out: Kinase Inhibition IC50 CDK1 cyclin B
[21] = Table 3 selectivity panel, read-out: Kinase specificity IC50 CDK1/B1
[22] = Table 2, read-out: Kinase Inhibition IC50 CDK7 cyclin H
[23] = Table 3 selectivity panel, CDK7/cyclin H/MAT 1 complex, read-out: Kinase specificity IC50 CDK7/H
[24] = Table 2, read-out: Kinase Inhibition IC50 GSK-3β
[25] = Table 3 selectivity panel, glycogen synthase kinase 3β, read-out: Kinase specificity IC50 GSK-3
[26] = Table 2, read-out: Kinase Inhibition IC50 CDK4 cyclin D1
[27] = Table 3 selectivity panel, read-out: Kinase specificity IC50 CDK4/D1
[28] = Table 2, read-out: Kinase Inhibition IC50 PLK-1
[29] = Table 3 selectivity panel, read-out: Kinase specificity IC50 PLK1
[30] = Table 2, read-out: Kinase Inhibition IC50 CDK9 cyclin T1
[31] = Table 3 selectivity panel, read-out: Kinase specificity IC50 CDK9/T1
[32] = Table 2, read-out: Kinase Inhibition IC50 CDK2 cyclin A
[33] = Table 3 selectivity panel, read-out: Kinase specificity IC50 CDK2/A

Sequence of PLK-1 (P53350 whole entry): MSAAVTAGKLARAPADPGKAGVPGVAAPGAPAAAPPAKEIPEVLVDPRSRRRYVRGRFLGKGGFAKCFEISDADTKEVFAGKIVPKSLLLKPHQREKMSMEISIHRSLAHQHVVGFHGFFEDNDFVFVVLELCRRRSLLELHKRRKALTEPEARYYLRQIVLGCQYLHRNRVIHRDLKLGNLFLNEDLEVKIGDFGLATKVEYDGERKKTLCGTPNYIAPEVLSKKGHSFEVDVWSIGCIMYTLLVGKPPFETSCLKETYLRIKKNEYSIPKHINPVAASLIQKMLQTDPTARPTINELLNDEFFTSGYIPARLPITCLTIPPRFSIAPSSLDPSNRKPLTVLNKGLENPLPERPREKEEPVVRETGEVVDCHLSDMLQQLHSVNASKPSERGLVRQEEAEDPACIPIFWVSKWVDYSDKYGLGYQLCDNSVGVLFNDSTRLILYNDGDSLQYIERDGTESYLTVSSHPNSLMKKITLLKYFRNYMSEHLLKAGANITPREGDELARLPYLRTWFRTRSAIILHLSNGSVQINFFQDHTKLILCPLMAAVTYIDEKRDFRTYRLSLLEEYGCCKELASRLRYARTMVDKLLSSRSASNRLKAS
Sequence of GSK-3β (P49841 whole entry): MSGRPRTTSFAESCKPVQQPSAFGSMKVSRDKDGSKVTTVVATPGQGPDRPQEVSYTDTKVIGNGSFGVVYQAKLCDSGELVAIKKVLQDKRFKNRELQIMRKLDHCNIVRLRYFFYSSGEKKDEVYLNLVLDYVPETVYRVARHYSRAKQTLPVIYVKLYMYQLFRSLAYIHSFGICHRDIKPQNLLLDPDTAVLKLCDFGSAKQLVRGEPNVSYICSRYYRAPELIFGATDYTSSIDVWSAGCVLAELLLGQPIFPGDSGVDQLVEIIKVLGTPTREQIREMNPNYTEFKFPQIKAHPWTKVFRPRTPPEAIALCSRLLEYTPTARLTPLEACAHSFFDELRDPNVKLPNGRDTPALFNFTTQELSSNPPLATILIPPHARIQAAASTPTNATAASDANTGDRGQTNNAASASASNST
Sequence of CDK4/cyclin D1 (P11802 whole entry): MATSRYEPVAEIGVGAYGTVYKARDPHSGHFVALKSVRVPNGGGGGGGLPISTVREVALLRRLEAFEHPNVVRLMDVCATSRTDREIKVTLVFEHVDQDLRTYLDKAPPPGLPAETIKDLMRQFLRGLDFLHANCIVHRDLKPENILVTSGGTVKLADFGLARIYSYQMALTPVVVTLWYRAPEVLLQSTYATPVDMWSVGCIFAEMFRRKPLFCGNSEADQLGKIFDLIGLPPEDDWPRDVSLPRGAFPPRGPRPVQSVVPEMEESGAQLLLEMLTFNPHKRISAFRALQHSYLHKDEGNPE
Sequence of CDK4/cyclin D1 (P24385 whole entry partner): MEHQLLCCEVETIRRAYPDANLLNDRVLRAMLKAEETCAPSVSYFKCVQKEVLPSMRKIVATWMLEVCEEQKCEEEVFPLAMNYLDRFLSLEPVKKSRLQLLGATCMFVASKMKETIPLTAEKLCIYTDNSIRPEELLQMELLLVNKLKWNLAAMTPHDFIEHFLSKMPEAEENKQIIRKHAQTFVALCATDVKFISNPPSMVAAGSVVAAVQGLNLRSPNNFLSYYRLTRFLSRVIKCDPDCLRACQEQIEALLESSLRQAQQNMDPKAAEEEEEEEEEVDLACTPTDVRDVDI
Sequence of CDK1/cyclin B (P06493 whole entry): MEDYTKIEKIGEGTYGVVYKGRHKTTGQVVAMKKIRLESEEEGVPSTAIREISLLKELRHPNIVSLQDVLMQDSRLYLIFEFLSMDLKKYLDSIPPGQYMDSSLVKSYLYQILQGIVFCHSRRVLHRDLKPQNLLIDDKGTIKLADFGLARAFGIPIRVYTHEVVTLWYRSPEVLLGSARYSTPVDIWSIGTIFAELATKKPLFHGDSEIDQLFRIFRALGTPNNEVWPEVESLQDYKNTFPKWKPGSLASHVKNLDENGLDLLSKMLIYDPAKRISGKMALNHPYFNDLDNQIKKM
Sequence of CDK1/cyclin B (P14635 whole entry partner): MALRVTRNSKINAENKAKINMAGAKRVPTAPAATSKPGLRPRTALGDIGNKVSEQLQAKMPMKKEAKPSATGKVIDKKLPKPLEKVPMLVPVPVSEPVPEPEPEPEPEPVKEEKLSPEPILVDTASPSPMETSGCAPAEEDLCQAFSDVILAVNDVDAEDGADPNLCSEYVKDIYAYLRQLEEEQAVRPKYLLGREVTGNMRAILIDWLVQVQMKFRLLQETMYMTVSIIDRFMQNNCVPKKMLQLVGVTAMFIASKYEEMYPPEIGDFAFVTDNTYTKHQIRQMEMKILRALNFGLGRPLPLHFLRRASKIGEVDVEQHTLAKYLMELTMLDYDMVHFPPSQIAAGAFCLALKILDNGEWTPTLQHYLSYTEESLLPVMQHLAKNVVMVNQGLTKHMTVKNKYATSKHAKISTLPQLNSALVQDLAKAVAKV
Sequence of CDK9/cyclin T1 (P50750 whole entry): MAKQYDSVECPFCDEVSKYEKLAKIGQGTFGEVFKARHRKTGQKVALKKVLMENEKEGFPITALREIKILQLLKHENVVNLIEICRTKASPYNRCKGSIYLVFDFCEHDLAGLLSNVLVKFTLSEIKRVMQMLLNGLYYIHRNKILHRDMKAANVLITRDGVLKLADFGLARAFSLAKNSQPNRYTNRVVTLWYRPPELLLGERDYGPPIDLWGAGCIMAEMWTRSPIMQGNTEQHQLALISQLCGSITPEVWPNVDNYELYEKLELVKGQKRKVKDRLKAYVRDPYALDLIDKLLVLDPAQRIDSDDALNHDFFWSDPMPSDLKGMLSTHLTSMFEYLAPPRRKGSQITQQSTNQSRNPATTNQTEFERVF
Sequence of CDK9/cyclin T1 (O60563 whole entry partner): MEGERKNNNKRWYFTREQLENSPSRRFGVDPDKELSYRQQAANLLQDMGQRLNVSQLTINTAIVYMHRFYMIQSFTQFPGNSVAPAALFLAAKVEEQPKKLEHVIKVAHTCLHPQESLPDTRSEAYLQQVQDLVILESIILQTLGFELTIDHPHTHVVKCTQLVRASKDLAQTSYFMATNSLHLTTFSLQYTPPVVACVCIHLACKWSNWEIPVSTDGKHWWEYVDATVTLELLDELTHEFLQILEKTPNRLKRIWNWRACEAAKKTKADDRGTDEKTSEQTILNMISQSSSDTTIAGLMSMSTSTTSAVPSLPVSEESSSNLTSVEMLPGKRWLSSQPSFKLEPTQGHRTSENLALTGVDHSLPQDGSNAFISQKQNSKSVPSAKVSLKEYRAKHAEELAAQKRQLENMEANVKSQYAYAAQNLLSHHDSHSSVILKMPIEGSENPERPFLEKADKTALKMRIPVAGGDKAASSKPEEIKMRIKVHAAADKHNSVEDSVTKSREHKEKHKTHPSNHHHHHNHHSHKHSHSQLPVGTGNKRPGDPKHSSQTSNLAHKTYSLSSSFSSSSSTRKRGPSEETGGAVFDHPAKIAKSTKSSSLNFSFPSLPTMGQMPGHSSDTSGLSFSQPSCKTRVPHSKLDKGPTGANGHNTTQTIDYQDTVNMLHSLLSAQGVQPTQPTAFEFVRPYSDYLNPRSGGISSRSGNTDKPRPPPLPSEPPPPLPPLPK
Sequence of CDK7/cyclin H (P50613 whole entry): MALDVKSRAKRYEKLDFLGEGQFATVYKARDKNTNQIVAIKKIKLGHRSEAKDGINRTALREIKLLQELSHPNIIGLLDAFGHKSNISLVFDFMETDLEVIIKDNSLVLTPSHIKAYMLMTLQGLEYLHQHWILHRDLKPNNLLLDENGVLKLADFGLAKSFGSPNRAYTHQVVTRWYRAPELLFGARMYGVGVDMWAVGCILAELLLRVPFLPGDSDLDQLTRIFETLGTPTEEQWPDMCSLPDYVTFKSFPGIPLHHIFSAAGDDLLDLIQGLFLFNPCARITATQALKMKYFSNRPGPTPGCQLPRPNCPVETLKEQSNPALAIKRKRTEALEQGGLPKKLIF

Row | Compound | IC50 [1, 20] [nM] | IC50 [1, 21] [nM] | IC50 [2, 22] [nM] | IC50 [2, 23] [nM] | IC50 [3, 24] [nM] | IC50 [3, 25] [nM] | IC50 [4, 26] [nM] | IC50 [4, 27] [nM] | IC50 ([5]; Table 4) [nM] | IC50 ([6]; Table 4) [nM] | IC50 [7, 28] [nM] | IC50 [7, 29] [nM] | IC50 ([8]; Table 4) [nM] | IC50 [9, 30] [nM] | IC50 [9, 31] [nM] | IC50 [10] [nM] | IC50 [11] [nM] | IC50 [12] [nM] | IC50 [13] [nM] | IC50 [14] [nM] | further results
1 | CNc1nc(C)c(-c2ccnc(Nc3ccc(N4CCOCC4)cc3)n2)s1 [Compound 3, [4-(2-N-Methylamino-4-methyl-thiazol-5-yl)-pyrimidin-2-yl]-(4-morpholinophenyl)-amine] | 71000 | > 100000 | 106000 | > 100000 | > 100000 | > 100000 | 1400 | 150 | 2800 | 3100 | > 150000 | > 100000 | 3700 | 12000 | 8500 | > 100000 |  |  |  |  | 
2 | Cc1nc(N)sc1-c1ccnc(Nc2ccc(N3CCOCC3)cc2)n1 [Compound 1, [4-(2-Amino-4-methyl-thiazol-5-yl)-pyrimidin-2-yl]-(4-morpholin-4-yl-phenyl)-amine] |  |  | 30000 | 56000 |  |  |  |  | 1700 | 1900 |  |  | 2100 |  |  | > 100000 | 900 | 300 | 1100 | 900 | IC50 [15]: > 5000 nM; IC50 [16]: > 5000 nM; IC50 [17]: 2100 nM; IC50 ([5]; Table 5, Colon): 1100 nM; IC50 ([6]; Table 5, Bone osteosarcoma): 100 nM; IC50 ([8]; Table 5, Lung): 1000 nM; IC50 [18]: 200 nM
3 | CNc1nc(C)c(-c2ccnc(Nc3ccc(N4CCN(Cc5ccccc5)CC4)cc3)n2)s1 [Compound 11, [4-(4-Benzyl-piperazin-1-yl)-phenyl]-[4-(4-methyl-2-methylamino-thiazol-5-yl)-pyrimidin-2-yl]-amine] | 2400 | 2400 | 19 | 19 | 6000 | 6000 | 9.8 | 9.8 | 1600 | 3600 | 19000 | 19000 | 2200 | 1100 | 1100 | > 100000 | 800 | 600 | 1300 | 500 | IC50 [15]: 1900 nM; IC50 [16]: 22000 nM; IC50 [17]: 2300 nM; IC50 ([5]; Table 5, Colon): 1600 nM; IC50 ([6]; Table 5, Bone osteosarcoma): 3700 nM; IC50 [19, 32]: 2200 nM; IC50 [19, 33]: 2200 nM; IC50 ([8]; Table 5, Lung): 2200 nM; IC50 [18]: 200 nM
4 | CCNc1nc(C)c(-c2ccnc(Nc3ccc(N4CCOCC4)cc3)n2)s1 [Compound 4, [4-(2-Ethylamino-4-methyl-thiazol-5-yl)-pyrimidin-2-yl]-(4-morpholin-4-yl-phenyl)-amine] | 30000 |  | 12000 |  | > 100000 |  | 430 |  | 920 | 1200 | > 100000 |  | 770 | 1800 |  |  |  |  |  |  | 
5 | Cc1nc(NC(=O)[C@H](N)[C@@H](C)O)sc1-c1ccnc(Nc2cccc([N+](=O)[O-])c2)n1 [Compound 15, (2R,3R)-2-Amino-3-hydroxy-N-{4-methyl-5-[2-(3-nitro-phenylamino)-pyrimidin-4-yl]-thiazol-2-yl}-butyramide] | 5400 | 1600 | 340 | 390 | 610 | 540 | 2000 | 1600 | 1000 | 1900 | > 150000 | > 100000 | 1100 | 70 | 110 | > 100000 | 900 | 500 | 1100 | 2600 | IC50 [15]: 900 nM; IC50 [16]: > 5000 nM; IC50 [17]: 1020 nM; IC50 ([5]; Table 5, Colon): 500 nM; IC50 ([6]; Table 5, Bone osteosarcoma): 400 nM; IC50 [19, 32]: 850 nM; IC50 [19, 33]: 400 nM; IC50 ([8]; Table 5, Lung): 600 nM; IC50 [18]: 400 nM
6 | Cc1nc(C)c(-c2ccnc(Nc3ccc(NC(=O)CN4CCCC4)cc3)n2)s1 [Compound 53, N-{4-[4-(2,4-Dimethyl-thiazol-5-yl)-pyrimidin-2-ylamino]-phenyl}-2-pyrrolidin-1-yl-acetamide] | 5200 |  | 440 |  | 23000 |  | 40 |  | 950 | 530 |  |  | 770 | 93 |  |  |  |  |  |  | IC50 [19, 32]: 5300 nM
